Assay [1] concerns the target T1, Muscarinic acetylcholine receptor M2 (Homo sapiens, UniProt P08172).
T1 sequence (P08172 whole entry): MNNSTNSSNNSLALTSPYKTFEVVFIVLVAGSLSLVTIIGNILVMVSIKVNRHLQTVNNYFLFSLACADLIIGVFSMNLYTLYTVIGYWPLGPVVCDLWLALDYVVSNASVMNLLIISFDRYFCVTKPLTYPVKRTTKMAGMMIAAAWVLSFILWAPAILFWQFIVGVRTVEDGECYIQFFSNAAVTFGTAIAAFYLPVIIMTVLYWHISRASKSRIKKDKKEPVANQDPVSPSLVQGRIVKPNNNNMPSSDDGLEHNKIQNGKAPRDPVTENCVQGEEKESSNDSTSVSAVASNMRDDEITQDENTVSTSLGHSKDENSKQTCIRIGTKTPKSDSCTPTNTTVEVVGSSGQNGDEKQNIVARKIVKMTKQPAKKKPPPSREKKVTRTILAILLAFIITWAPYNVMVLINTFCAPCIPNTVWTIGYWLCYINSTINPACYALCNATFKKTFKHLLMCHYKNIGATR

For assay [2], the target named is cGMP-inhibited 3',5'-cyclic phosphodiesterase 3A (Homo sapiens, UniProt Q14432). It counts as functional.
The target of a further assay is T2, Thromboxane A2 receptor (Homo sapiens, UniProt P21731).
T2 sequence (P21731 whole entry): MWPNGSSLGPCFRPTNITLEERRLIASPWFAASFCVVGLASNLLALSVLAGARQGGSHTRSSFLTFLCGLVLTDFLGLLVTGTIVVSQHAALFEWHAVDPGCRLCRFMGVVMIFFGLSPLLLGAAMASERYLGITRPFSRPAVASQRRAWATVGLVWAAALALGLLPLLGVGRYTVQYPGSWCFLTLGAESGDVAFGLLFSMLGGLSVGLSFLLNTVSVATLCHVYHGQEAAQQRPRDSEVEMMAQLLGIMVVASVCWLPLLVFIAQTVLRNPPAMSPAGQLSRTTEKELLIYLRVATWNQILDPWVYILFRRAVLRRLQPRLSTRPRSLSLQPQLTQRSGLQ
It counts as functional, cell-based.

Another assay addresses T3, Progesterone receptor (Homo sapiens, UniProt P06401).
T3 sequence (P06401 whole entry): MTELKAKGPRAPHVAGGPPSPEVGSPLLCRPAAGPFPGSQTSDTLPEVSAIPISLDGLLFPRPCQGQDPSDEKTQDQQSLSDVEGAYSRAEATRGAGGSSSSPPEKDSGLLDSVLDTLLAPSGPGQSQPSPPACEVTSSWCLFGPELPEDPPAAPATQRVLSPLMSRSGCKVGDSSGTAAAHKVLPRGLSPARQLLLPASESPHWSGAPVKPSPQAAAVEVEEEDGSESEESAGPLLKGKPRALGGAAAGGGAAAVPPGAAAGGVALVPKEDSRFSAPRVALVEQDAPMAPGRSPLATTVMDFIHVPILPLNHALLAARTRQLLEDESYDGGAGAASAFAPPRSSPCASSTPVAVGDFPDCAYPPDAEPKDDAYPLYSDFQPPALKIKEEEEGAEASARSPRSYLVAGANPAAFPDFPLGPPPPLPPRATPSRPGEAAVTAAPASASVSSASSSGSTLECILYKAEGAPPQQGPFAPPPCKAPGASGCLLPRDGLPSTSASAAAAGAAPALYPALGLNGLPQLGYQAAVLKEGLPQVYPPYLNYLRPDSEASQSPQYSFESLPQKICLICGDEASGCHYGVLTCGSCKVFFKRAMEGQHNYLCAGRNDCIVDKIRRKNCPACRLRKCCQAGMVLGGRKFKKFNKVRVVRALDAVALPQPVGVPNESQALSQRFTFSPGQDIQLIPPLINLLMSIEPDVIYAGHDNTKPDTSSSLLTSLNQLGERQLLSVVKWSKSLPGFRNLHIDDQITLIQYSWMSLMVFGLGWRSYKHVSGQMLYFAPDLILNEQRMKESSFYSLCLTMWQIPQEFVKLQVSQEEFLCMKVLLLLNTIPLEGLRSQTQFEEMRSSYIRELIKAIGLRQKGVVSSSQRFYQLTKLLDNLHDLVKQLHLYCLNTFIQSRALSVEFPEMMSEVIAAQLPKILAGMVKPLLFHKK

A further assay concerns the target Mu-type opioid receptor (Homo sapiens, UniProt P35372).
The target in assay [3] is T4, Alpha-2A adrenergic receptor (Homo sapiens, UniProt P08913).
T4 sequence (P08913 whole entry): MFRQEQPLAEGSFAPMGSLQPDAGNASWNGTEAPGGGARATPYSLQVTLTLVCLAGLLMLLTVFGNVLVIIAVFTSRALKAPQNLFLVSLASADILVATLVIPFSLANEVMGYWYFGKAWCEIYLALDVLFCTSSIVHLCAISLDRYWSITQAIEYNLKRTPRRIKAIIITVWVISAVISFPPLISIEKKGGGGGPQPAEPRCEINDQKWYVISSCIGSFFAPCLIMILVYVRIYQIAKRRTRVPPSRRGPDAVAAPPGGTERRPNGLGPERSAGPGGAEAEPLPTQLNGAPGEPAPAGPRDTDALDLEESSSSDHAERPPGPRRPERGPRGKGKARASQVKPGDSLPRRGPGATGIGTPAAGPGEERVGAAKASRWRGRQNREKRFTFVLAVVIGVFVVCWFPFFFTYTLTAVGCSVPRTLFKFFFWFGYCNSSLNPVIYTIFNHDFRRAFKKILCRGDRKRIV

The target of assay [4] is Gamma-aminobutyric acid receptor subunit alpha-1/alpha-2/beta-2/gamma-2 (Homo sapiens, UniProt P14867+P18507+P47869+P47870). It counts as functional, cell-based.
Assay [5] has as its target T5, Neuropeptide Y receptor type 2 (Homo sapiens, UniProt P49146).
T5 sequence (P49146 whole entry): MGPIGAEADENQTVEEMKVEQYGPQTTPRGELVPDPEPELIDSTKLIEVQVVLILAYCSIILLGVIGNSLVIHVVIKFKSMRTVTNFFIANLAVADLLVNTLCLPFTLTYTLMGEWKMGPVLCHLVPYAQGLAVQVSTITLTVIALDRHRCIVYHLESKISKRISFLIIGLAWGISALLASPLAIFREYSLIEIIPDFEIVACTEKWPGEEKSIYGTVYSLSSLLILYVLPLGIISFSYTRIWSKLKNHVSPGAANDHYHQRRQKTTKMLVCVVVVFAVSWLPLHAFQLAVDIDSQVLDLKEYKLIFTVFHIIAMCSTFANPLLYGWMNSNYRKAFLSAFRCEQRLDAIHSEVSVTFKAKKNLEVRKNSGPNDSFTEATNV

Another assay concerns the target Glucagon receptor (Homo sapiens, UniProt P47871).
Also: assay procedure not described here.

Gamma-aminobutyric acid receptor subunit alpha-1/alpha-2/beta-2/gamma-2, sequence (P14867 whole entry): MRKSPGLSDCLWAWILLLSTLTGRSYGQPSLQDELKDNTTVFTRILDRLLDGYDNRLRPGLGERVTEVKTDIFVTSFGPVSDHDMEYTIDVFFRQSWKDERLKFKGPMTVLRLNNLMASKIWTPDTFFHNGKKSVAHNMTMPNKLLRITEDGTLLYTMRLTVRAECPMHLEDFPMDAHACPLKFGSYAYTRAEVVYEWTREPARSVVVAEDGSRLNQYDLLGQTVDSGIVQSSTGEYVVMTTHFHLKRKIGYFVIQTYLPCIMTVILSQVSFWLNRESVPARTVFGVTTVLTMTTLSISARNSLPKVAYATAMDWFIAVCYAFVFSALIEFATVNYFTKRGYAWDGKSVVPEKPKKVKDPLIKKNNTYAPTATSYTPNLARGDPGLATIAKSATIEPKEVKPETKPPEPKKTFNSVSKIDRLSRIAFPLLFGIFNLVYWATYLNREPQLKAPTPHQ
Gamma-aminobutyric acid receptor subunit alpha-1/alpha-2/beta-2/gamma-2, sequence (P47870 whole entry): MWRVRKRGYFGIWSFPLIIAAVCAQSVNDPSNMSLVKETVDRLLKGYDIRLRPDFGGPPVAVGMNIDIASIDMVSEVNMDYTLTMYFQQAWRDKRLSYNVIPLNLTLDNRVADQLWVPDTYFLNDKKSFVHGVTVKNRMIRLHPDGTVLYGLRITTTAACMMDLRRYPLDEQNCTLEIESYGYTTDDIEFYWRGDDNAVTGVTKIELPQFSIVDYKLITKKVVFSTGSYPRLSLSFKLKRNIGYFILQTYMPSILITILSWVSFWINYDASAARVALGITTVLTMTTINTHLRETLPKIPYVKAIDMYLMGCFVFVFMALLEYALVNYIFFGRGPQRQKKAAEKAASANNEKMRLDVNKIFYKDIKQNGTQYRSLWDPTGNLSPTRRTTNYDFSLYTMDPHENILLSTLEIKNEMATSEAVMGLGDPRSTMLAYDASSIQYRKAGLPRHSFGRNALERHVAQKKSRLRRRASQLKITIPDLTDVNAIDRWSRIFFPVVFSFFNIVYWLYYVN
Gamma-aminobutyric acid receptor subunit alpha-1/alpha-2/beta-2/gamma-2, sequence (P18507 whole entry): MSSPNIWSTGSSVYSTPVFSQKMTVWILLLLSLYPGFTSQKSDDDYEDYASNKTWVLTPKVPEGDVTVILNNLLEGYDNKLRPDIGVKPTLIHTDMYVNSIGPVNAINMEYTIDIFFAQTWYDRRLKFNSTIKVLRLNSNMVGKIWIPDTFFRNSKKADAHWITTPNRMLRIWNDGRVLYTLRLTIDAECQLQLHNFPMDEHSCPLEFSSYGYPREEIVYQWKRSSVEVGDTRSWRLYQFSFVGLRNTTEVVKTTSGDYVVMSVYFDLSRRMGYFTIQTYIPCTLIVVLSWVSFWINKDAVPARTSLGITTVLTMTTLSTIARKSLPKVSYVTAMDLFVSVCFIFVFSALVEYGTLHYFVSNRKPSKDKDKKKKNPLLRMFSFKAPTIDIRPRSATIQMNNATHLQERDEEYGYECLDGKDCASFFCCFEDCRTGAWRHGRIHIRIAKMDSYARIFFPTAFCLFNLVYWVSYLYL
Gamma-aminobutyric acid receptor subunit alpha-1/alpha-2/beta-2/gamma-2, sequence (P47869 whole entry): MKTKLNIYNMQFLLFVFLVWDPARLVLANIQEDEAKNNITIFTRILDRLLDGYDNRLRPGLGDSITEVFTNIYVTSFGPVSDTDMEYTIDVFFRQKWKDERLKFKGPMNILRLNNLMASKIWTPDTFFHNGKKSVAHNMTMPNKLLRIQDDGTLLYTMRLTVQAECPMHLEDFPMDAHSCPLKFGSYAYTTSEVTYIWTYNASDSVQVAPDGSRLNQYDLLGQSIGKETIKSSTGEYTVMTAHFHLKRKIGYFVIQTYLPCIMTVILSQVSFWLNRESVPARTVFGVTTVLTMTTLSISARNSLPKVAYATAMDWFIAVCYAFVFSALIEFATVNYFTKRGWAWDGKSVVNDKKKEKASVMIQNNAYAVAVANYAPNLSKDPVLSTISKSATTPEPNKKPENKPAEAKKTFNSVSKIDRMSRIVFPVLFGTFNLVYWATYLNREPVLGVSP
Mu-type opioid receptor, sequence (P35372 whole entry): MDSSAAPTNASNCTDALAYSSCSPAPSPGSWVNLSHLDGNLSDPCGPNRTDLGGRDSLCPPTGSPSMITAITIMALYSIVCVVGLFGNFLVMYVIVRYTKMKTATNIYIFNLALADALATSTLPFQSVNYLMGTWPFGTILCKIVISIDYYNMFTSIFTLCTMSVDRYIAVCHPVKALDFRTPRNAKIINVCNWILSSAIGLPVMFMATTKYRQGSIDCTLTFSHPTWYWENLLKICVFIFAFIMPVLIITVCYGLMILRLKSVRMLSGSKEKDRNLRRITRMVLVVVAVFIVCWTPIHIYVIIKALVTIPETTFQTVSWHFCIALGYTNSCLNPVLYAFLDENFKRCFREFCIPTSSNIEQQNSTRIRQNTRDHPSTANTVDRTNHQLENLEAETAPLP
Glucagon receptor, sequence (P47871 whole entry): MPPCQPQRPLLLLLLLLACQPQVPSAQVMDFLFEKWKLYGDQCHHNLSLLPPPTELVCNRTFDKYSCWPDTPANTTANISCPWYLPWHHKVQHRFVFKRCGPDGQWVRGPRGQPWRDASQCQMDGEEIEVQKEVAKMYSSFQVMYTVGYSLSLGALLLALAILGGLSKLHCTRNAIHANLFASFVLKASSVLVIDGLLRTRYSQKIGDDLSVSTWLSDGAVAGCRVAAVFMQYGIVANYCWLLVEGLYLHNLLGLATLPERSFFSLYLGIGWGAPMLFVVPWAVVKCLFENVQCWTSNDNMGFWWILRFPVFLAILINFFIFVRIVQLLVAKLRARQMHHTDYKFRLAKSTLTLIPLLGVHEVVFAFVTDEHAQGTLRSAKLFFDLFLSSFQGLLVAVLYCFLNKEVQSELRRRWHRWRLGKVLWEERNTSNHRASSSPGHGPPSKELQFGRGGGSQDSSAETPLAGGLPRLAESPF
cGMP-inhibited 3',5'-cyclic phosphodiesterase 3A, sequence (Q14432 whole entry): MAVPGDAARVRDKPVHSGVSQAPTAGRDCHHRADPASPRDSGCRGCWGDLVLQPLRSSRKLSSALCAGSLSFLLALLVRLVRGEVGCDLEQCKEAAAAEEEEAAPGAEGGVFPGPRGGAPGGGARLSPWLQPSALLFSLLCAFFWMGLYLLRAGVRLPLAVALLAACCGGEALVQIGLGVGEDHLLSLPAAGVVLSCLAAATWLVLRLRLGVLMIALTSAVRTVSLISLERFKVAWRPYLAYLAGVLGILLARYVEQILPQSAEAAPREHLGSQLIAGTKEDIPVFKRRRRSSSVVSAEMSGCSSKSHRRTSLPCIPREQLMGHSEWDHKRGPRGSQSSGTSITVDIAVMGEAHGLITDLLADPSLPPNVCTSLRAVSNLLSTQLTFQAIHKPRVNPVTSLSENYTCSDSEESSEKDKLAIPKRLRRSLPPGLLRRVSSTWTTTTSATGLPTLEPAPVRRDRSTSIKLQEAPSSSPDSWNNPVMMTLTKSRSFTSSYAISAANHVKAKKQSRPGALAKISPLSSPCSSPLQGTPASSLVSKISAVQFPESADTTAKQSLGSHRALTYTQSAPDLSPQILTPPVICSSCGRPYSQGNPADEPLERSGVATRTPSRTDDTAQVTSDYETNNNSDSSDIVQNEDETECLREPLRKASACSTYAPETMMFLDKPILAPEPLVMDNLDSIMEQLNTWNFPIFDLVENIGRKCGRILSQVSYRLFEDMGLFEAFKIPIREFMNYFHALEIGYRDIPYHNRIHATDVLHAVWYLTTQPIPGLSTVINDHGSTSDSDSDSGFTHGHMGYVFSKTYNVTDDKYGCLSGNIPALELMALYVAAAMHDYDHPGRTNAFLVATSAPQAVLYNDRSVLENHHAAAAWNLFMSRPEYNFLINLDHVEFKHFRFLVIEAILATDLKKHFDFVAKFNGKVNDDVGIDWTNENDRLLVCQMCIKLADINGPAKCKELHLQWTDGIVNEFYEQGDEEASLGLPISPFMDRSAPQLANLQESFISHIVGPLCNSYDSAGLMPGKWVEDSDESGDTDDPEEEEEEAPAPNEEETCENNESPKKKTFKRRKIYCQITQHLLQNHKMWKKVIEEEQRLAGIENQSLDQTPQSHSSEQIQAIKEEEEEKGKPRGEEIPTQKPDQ

In general, AC50 refers to the midpoint of the concentration-response curve, whichever way the signal moves. Higher therefore signals activity only at high concentration. In the case of `O=C(O)CCCCC1CCSS1` (stereo not drawn) [LIPOIC ACID, ALPHA], the AC50 (in assay [1]; in [2]; on Thromboxane A2 receptor; at Progesterone receptor; at Mu-type opioid receptor) was above 30 µM in each case.

In the case of `Cc1ncc2n1-c1ccc(Cl)cc1C(c1ccccc1F)=NC2` [MIDAZOLAM], in assay [3], the AC50 is above 10 µM.

In assay [4], `Oc1ccc2c(c1)[C@@]13CCCC[C@@]1(O)[C@@H](C2)N(CC1CCC1)CC3` [BUTORPHANOL] showed a half-maximal activity concentration (AC50) above 30 µM.

`CCN1CCCC1CNC(=O)c1cc(S(=O)(=O)CC)c(N)cc1OC` (stereo not drawn) [AMISULPRIDE] registered an AC50 in assay [4] above 30 µM.

Turning to `CC(=O)OCC(=O)[C@@]1(O)[C@H](C)C[C@H]2[C@@H]3CCC4=CC(=O)C=C[C@]4(C)[C@@]3(F)[C@@H](O)C[C@@]21C` [DEXAMETHASONE ACETATE], the AC50 (in assay [5]; on Glucagon receptor) was above 30 µM each time.

In the case of `Cn1c(=O)cc(N2CCC[C@@H](N)C2)n(Cc2ccccc2C#N)c1=O` [ALOGLIPTIN], the AC50 was above 30 µM in assay [5], above 30 µM at Glucagon receptor and above 10 µM in [3].

As to `Nc1c2ccccc2nc2ccccc12` [AMINACRINE], the AC50 in assay [1] is 4.27 µM; in assay [2] it was above 30 µM; at Thromboxane A2 receptor it was above 30 µM; at Progesterone receptor it was above 30 µM; on Mu-type opioid receptor, 13.8 µM.
